What was measured:
Z-138 cell line = assay: Z-138 Proliferation Assay (Cell Titer Glo); assay type: cell-based; details: Homo sapiens, 120 h; Z-138 cells, 5 days incubation, top concentration 20 μM
From the text: Z-138 Proliferation Assay
Z-138 suspension cells were purchased from ATCC (American Type Culture Collection, Manassas, Va.). RPMI/Glutamax medium, penicillin-streptomycin, heat inactivated fetal bovine serum were purchased from Life Technologies, Grand Island, N.Y., USA. V-bottom polypropylene 384-well plates were purchased from Greiner Bio-One, Monroe, N.C., USA. Cell culture 384-well white opaque plates were purchased from Perkin Elmer, Waltham, Mass., USA. Cell-Titer Glo® was purchased from Promega Corporation, Madison, Wis., USA. SpectraMax M5 plate reader was purchased from Molecular Devices LLC, Sunnyvale, Calif., USA.
Z-138 suspension cells were maintained in growth medium (RPMI 1640 supplemented with 10% v/v heat inactivated fetal bovine serum and cultured at 37° C. under 5% CO2. Under assay conditions, cells were incubated in assay medium (RPMI 1640 supplemented with 10% v/v heat inactivated fetal bovine serum and 100 units/mL penicillin-streptomycin) at 37° C. under 5% CO2.
For the assessment of the effect of compounds on the proliferation of the Z-138 cell line, exponentially growing cells were plated in 384-well white opaque plates at a density of 10,000 cells/ml in a final volume of 50 μl of assay medium. A compound source plate was prepared by performing triplicate nine-point 3-fold serial dilutions in DMSO, beginning at 10 mM (final top concentration of compound in the assay was 20 μM and the DMSO was 0.2%). A 100 nL aliquot from the compound stock plate was added to its respective well in the cell plate. […] After addition of compounds, assay plates were incubated for 5 days at 37° C., 5% CO2, relative humidity >90%. Cell viability was measured by quantitation of ATP present in the cell cultures, adding 35 μl of Cell Titer Glo® reagent to the cell plates. Luminescence was read in the SpectraMax M5 microplate reader. The concentration of compound inhibiting cell viability by 50% was determined using a 4-parametric fit of the normalized dose response curves.

PRMT5/MEP50 = biological target: T1, PRMT5/MEP50 (Homo sapiens, UniProt O14744); assay: PRMT5 Biochemical Assay (PRMT5/MEP50 enzyme assay on peptide substrate, 3H-SAM Flashplate); details: PRMT5/MEP50 4 nM, 3H-SAM 75 nM, peptide 40 nM
T1 construct: Flag-PRMT5; made in house; host or cells: Spodoptera frugiperda (SF9) insect cells, baculovirus
From the text: S-adenosylmethionine (SAM), S-adenosylhomocysteine (SAH), bicine, KCl, Tween20, dimethylsulfoxide (DMSO), bovine skin gelatin (BSG), and Tris(2-carboxyethyl)phosphine hydrochloride solution (TCEP) were purchased from Sigma-Aldrich at the highest level of purity possible. ^3H-SAM was purchase from American Radiolabeled Chemicals with a specific activity of 80 C1/mmol. 384-well streptavidin Flashplates were purchased from PerkinElmer.
Peptide representative of human histone H4 residues 1-15 was synthesized with a C-terminal linker-affinity tag motif and a C-terminal amide cap by 21st Century Biochemicals.
The amplified genes were sublconed into pENTR/D/TEV (Life Technologies) and subsequently transferred by Gateway™ attL×attR recombination to pDEST8 baculvirus expression vector (Life Technologies).
Protein over-expression was accomplished by infecting exponentially growing Spodoptera frugiperda (SF9) cell culture at 1.2×10^6 cell/ml with a 5000 fold dilution of BIIC stock. Infections were carried out at 27° C. for 72 hours, harvested by centrifugation, and stored at −80° C. for purification.
Flag-PRMT5/6His-MeP50 was eluted with 300 mM Imidazole in the same buffer.
General Procedure for PRMT5/MEP50 Enzyme Assays on Peptide Substrates.
The assays were all performed in a buffer consisting of 20 mM Bicine (pH=7.6), 1 mM TCEP, 0.005% BSG, and 0.002% Tween20, prepared on the day of use. […] DMSO (1 ul) was added to Columns 11, 12, 23, 24, rows A-H for the maximum signal control and 1 ul of SAH, a known product and inhibitor of PRMT5/MEP50, was added to columns 11, 12, 23, 24, rows I-P for the minimum signal control. A cocktail (40 ul) containing the PRMT5/MEP50 enzyme and the peptide was added by Multidrop Combi (Thermo-Fisher). The compounds were allowed to incubate with PRMT5/MEP50 for 30 min at 25 degrees Celsius, then a cocktail (10 ul) containing ^3H-SAM was added to initiate the reaction (final volume=51 ul). […] The assays were stopped by the addition of non-radioactive SAM (10 ul) to a final concentration of 600 uM, which dilutes the ^3H-SAM to a level where its incorporation into the peptide substrate is no longer detectable. 50 ul of the reaction in the 384-well polypropylene plate was then transferred to a 384-well Flashplate and the biotinylated peptides were allowed to bind to the streptavidin surface for at least 1 hour before being washed three times with 0.1% Tween20 in a Biotek ELx405 plate washer. The plates were then read in a PerkinElmer TopCount plate reader to measure the quantity of ^3H-labeled peptide bound to the Flashplate surface, measured as disintegrations per minute (dpm) or alternatively, referred to as counts per minute (cpm).
Where dpm=disintegrations per minute, cmpd=signal in assay well, and min and max are the respective minimum and maximum signal controls.
Where top and bottom are the normally allowed to float, but may be fixed at 100 or 0 respectively in a 3-parameter fit. The Hill Coefficient normally allowed to float but may also be fixed at 1 in a 3-parameter fit. Y is the % inhibition and X is the compound concentration.

[1] = test system: symmetric di-methyl arginine in Z-138 cells; assay: Z-138 Methylation Assay (In Cell Western for symmetric di-methyl arginine); assay type: cell-based; details: Homo sapiens, 96 hours incubation, read-out: ICW EC50
From the text: Z-138 suspension cells were purchased from ATCC (American Type Culture Collection, Manassas, Va.). RPMI/Glutamax medium, penicillin-streptomycin, heat inactivated fetal bovine serum, and D-PBS were purchased from Life Technologies, Grand Island, N.Y., USA. Odyssey blocking buffer, 800 CW goat anti-rabbit IgG (H+L) antibody, and Licor Odyssey infrared scanner were purchased from Licor Biosciences, Lincoln, Nebr., USA. Symmetric di-methyl arginine antibody was purchased from EMD Millipore, Billerica, Mass., USA. 16% Paraformaldehyde was purchased from Electron Microscopy Sciences, Hatfield, Pa., USA.
Z-138 suspension cells were maintained in growth medium (RPMI 1640 supplemented with 10% v/v heat inactivated fetal bovine serum and 100 units/mL penicillin-streptomycin) and cultured at 37° C. under 5% CO2.
Cell Treatment, in Cell Western (ICW) for Detection of Symmetric Di-Methyl Arginine and DNA Content.
Z-138 cells were seeded in assay medium at a concentration of 50,000 cells per mL to a 384-well cell culture plate with 50 μL per well. Compound (100 nL) from 384 well source plates was added directly to 384 well cell plate. Plates were incubated at 37° C., 5% CO2 for 96 hours. After four days of incubation, 40 μL of cells from incubated plates were added to poly-D-lysine coated 384 well culture plates (BD Biosciences 356697). Plates were incubated at room temperature for 30 minutes then incubated at 37° C., 5% CO2 for 5 hours. After the incubation, 40 μL per well of 8% paraformaldehyde in PBS (16% paraformaldahyde was diluted to 8% in PBS) was added to each plate and incubated for 30 minutes. Plates were transferred to a Biotek 405 plate washer and washed 5 times with 100 μL per well of wash buffer (1×PBS with 0.1% Triton X-100 (v/v)). Next 30 μL per well of Odyssey blocking buffer were added to each plate and incubated 1 hour at room temperature. Blocking buffer was removed and 20 μL per well of primary antibody was added (symmetric di-methyl arginine diluted 1:100 in Odyssey buffer with 0.1% Tween 20 (v/v)) and plates were incubated overnight (16 hours) at 4° C. Plates were washed 5 times with 100 μL per well of wash buffer. Next 20 μL per well of secondary antibody was added (1:200 800 CW goat anti-rabbit IgG (H+L) antibody, 1:1000 DRAQ5 (Biostatus limited) in Odyssey buffer with 0.1% Tween 20 (v/v)) and incubated for 1 hour at room temperature. The plates were washed 5 times with 100 μL per well wash buffer then 1 time with 100 μL per well of water. Plates were allowed to dry at room temperature then imaged on the Licor Odyssey machine which measures integrated intensity at 700 nm and 800 nm wavelengths. Both 700 and 800 channels were scanned.
First, the ratio for each well was determined by:
Each plate included fourteen control wells of DMSO only treatment (minimum inhibition) as well as fourteen control wells for maximum inhibition treated with 3 μM of a reference compound (Background wells). The average of the ratio values for each control type was calculated and used to determine the percent inhibition for each test well in the plate. Reference compound was serially diluted three-fold in DMSO for a total of nine test concentrations, beginning at 3 μM. Percent inhibition was determined and IC50 curves were generated using triplicate wells per concentration of compound.

T1 sequence (O14744 with tags, fused parts or gaps): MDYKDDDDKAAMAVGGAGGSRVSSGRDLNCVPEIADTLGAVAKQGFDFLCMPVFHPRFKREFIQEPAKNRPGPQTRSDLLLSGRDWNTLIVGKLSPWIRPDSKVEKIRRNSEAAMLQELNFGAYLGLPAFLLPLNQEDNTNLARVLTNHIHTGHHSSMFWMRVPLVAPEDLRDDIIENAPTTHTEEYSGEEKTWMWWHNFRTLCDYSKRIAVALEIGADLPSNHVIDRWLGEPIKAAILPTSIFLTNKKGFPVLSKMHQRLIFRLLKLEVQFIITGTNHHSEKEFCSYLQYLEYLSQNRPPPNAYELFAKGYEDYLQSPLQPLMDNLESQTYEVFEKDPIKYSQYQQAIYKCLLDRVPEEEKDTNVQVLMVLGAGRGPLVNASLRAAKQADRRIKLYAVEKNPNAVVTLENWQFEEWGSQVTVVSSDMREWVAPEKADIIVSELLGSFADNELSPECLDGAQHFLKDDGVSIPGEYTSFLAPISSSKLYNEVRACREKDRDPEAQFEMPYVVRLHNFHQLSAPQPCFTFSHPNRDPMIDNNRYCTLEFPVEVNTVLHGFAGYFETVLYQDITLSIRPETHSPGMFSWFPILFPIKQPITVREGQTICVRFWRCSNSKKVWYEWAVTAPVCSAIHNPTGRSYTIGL
T1 sequence (Q9BQA1 with tags, fused parts or gaps partner limits assumed): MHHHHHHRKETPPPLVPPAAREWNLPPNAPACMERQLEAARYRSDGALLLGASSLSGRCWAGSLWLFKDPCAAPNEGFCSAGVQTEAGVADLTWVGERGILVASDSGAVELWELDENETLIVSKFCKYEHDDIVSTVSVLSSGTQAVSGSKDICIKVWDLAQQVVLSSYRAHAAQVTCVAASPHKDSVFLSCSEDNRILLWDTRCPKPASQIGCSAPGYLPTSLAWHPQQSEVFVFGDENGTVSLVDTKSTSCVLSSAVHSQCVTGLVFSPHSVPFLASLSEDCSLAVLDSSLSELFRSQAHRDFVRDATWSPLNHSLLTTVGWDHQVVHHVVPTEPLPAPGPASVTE

Structure (SMILES) | EC50 (Z-138 cell line) [nM] | IC50 (PRMT5/MEP50) [nM] | EC50 [1] [nM]
Cn1ncc2ccc(OCC(=O)NCC(O)CN3CCc4ccccc4C3)cc21 (stereo not shown) [Compound 23, N-(3-(3,4-dihydroisoquinolin-2(1H)-yl)-2-hydroxypropyl)-2-((1-methyl-1H-indazol-6-yl)oxy)acetamide] | 1000 to 10000 |  | 
Cn1cnc(-c2ccccc2OCC(=O)NCC(O)CN2CCc3ccccc3C2)c1 (stereo not shown) [Compound 153] | 10000 to 50000 | < 100 | 101 to 1000
CN(c1ccccc1OCC(=O)NCC(O)CN1CCc2ccccc2C1)S(C)(=O)=O (stereo not shown) [Compound 155] | 1000 to 10000 | < 100 | < 100
Cc1nn(C)c2cccc(OCC(=O)NCC(O)CN3CCc4ccccc4C3)c12 (stereo not shown) [Compound 158] | 1000 to 10000 | < 100 | 101 to 1000
Cn1ncc2ccc(OCC(=O)NC[C@H](O)CN3CCc4ccccc4C3)cc21 [Compound 159] | 1000 to 10000 | < 100 | < 100
Cn1ncc2ccc(OCC(=O)NC[C@@H](O)CN3CCc4ccccc4C3)cc21 [Compound 160] | > 20000 |  | 1000 to 10000
O=C(COc1cncc(C(=O)N2CCOCC2)c1)NCC(O)CN1CCc2ccccc2C1 (stereo not shown) [Compound 161] | > 20000 |  | 1000 to 10000
CC(=O)Nc1ccncc1OCC(=O)NCC(O)CN1CCc2ccccc2C1 (stereo not shown) [Compound 162] | > 20000 |  | 1000 to 10000
Cc1cn(C)c2cccc(OCC(=O)NC[C@H](O)CN3CCc4ccccc4C3)c12 [Compound 163] | 1000 to 10000 | < 100 | 101 to 1000
Cc1cn(C)c2cccc(OCC(=O)NC[C@@H](O)CN3CCc4ccccc4C3)c12 [Compound 164] | 101 to 1000 | < 100 | < 100
O=C(NCC(O)CN1CCc2ccccc2C1)C(O)c1ccccc1 (stereo not shown) [Compound 165] | > 20000 |  | 101 to 1000
Nc1ncnc2c(OCC(=O)NCC(O)CN3CCc4ccccc4C3)cccc12 (stereo not shown) [Compound 168] | 1000 to 10000 | < 100 | < 100
CN(C)c1cccc(OCC(=O)NCC(O)CN2CCc3ccccc3C2)c1S(N)(=O)=O (stereo not shown) [Compound 169] | 1000 to 10000 | < 100 | < 100
CC(NC(=O)COc1ccccc1S(N)(=O)=O)C(O)CN1CCc2ccccc2C1 (stereo not shown) [Compound 170] | 10000 to 50000 | < 100 | 101 to 1000
O=C(COc1cncc(CN2CCOCC2)c1)NCC(O)CN1CCc2ccccc2C1 (stereo not shown) [Compound 172] | 10000 to 50000 |  | 101 to 1000
O=C(Cc1ccc2c(c1)OCO2)NC[C@H](O)CN1CCc2ccccc2C1 [Compound 174] | > 20000 |  | 101 to 1000
O=C(NC[C@H](O)CN1CCc2ccccc2C1)C1CNc2ccccc21 (stereo partly shown) [Compound 177] | 10000 to 50000 |  | 101 to 1000
O=C(CC1CCc2ccccc21)NC[C@H](O)CN1CCc2ccccc2C1 (stereo partly shown) [Compound 178] | 1000 to 10000 |  | 101 to 1000
O=C(CC1Cc2ccccc2C1)NC[C@H](O)CN1CCc2ccccc2C1 [Compound 179] | 10000 to 50000 |  | 101 to 1000
O=C(COc1cccc2cncnc12)NCC(O)CN1CCc2ccccc2C1 (stereo not shown) [Compound 181] |  | < 100 | < 100
O=C(Cc1c[nH]c2ccccc12)NC[C@H](O)CN1CCc2ccccc2C1 [Compound 182] |  |  | 101 to 1000
O=C(NC[C@H](O)CN1CCc2ccccc2C1)C1COc2ccccc2O1 (stereo partly shown) [Compound 183] |  |  | 101 to 1000
CN1CCN(c2cccc(OCC(=O)NC[C@@H](O)CN3CCc4ccccc4C3)c2)CC1 [Compound 190] |  | < 100 | 
CN(C)CCN(C)S(=O)(=O)c1ccccc1OCC(=O)NC[C@@H](O)CN1CCc2ccccc2C1 [Compound 191] |  | < 100 | 

— patent US20190083482A1, “PRMT5 INHIBITORS AND USES THEREOF” (Epizyme, Inc., priority 2017, published 2019)
